The subject of one series is DU-145 prostate tumors. As to the kind of experiment: Anti-tumor activity in mice implanted with DU-145 prostate tumors. Particulars: two doses (q7d×2), FIG. 2.
The nature of series [1]: Maximum tolerated dose in tumor-bearing athymic nude mice. The settings on record: mouse, in vivo, intravenous.

The structures appear in SMILES notation. A value given as a limit tells only on which side of the number the result lay.

For orientation: MTD means the largest dose that counted as tolerated. The low end stands for a narrow tolerated range, the high end for a wide tolerated range.

As for `CC(=O)O[C@@]12CO[C@@H]1C[C@H](O)[C@@]1(C)C(=O)[C@H](O)C3=C(C)[C@@H](OC(=O)[C@H](O)[C@@H](NC(=O)OC(C)(C)C)c4ccccc4)C[C@@](O)([C@@H](OC(=O)c4ccccc4)[C@H]21)C3(C)C` [docetaxel, Docetaxel], the “anti-tumor effect on tumor growth” value with DU-145 prostate tumors (3 doses tested, 78 day observation period) is “good activity”. Further, in the series on DU-145 prostate tumors, the “time after which tumors recover and grow” value fell in the range of 30 to 50 days. Also, the MTD at 78 day in series [1] (athymic nude, mice with DU-145 prostate tumors) is at most 30 mg/kg. The MTD in series [1] (athymic nude mice, H460 NSCLC tumors, 2nd study) is at most 30 mg/kg.

The record behind these values is patent US8937180B2, “Method for preparing a polymer conjugate” (Nektar Therapeutics, priority 2006, dated 2015).
